Like-named read-outs stand apart in the source and are kept apart here.
Assays:
Plasmopara viticola [1] = assay: whole plant or invertebrate; format: in vivo; conditions: read-out: Observed activity (%)
Phytophthora infestans [2] = assay: whole plant or invertebrate; format: in vivo; conditions: 144 h, read-out: Efficacy in % of the untreated control
Phytophthora infestans [3] = assay: microbe, parasite or virus in culture; format: cell-based
Botrytis cinerea = assay: Activity against the gray mold pathogen Botrytis cinerea in the microtiter test; format: cell-based; conditions: Botrytis cinerea, single active compound, read-out: Observed activity (%); for inhibition at 0.25 µg/mL: Conc. 0.25 mg/l
Pyricularia oryzae = assay: microbe, parasite or virus in culture; format: cell-based; conditions: Pyricularia oryzae, read-out: Observed activity (%)
Phytophthora infestans [4] = assay: whole plant or invertebrate; format: in vivo; conditions: in vivo
Plasmopara viticola [5] = assay: whole plant or invertebrate; format: in vivo; conditions: read-out: Observed activity (%); remark: listed apart in the source
[6] = Phytophthora infestans, read-out: Observed activity (%)

## CC1(c2ccc(Oc3ccccc3)cc2)OC(=O)N(Nc2ccccc2)C1=O (racemic) [famoxadone, (RS)-3-anilino-5-methyl-5-(4-phenoxyphenyl)-1,3-oxazolidine-2,4-dione]
Plasmopara viticola [1]
  inhibition at 4 µg/mL: 0%

## CCCCCCCCc1c(CCC)nc2ncnn2c1N [Compound I-180, 6-octyl-5-propyl-[1,2,4]triazolo[1,5-a]pyrimidin-7-ylamine]
Phytophthora infestans [2]
  pest or weed control at 16 ppm: 0%
  pest or weed control at 63 ppm: 33%
Phytophthora infestans [3]; [6]
  inhibition at 0.016 µg/mL: 0%
  inhibition at 0.25 µg/mL: 8%
  inhibition at 1 µg/mL: 17%
  inhibition at […]: 2%
Botrytis cinerea; Conc. 0.016 mg/l
  inhibition at 0.016 µg/mL: 3%
Botrytis cinerea
  inhibition at 0.25 µg/mL: 13%
Pyricularia oryzae
  inhibition at 1 µg/mL: 15%

## CCCCCCCCc1c(COC)nc2ncnn2c1N [Compound I-245, 5-methoxymethyl-6-octyl-[1,2,4]triazolo[1,5-a]pyrimidin-7-ylamine]
Phytophthora infestans [2]
  pest or weed control at 4 ppm: 0%
Phytophthora infestans [3]; [6]
  inhibition at 0.016 µg/mL: 0%
  inhibition at 0.25 µg/mL: 12%
  inhibition at […]: 0%
Botrytis cinerea
  inhibition at 0.25 µg/mL: 0%
Pyricularia oryzae
  inhibition at 0.25 µg/mL: 10%
  inhibition at 16 µg/mL: 23%

## [Cu+2].[OH-].[OH-] [Cu(OH)2, copper hydroxide, reference compound]
Phytophthora infestans [4]
  Observed activity (%): 11%
Phytophthora infestans [3]
  Observed activity (%): 2%

## COC(=O)NCc1cc(C(C)=NOCc2cccc(C)c2)ccc1Cl [[B-6], methyl (2-chloro-5-[1-(3-methylbenzyloxyimino)-ethyl]benzyl)carbamate, reference compound]
Plasmopara viticola [1]
  inhibition at 16 µg/mL: 0%
Phytophthora infestans [3]; [6]
  inhibition at 0.25 µg/mL: 10%
Botrytis cinerea; Conc. 16 mg/l
  inhibition at 16 µg/mL: 53%

## COC(=O)CC(NC(=O)C(NC(=O)OC(C)C)C(C)C)c1ccc(Cl)cc1 (stereo not shown) [[E-7], methyl 3-(4-chlorophenyl)-3-(2-isopropoxycarbonylamino-3-methyl-butyrylamino)propanoate]
Plasmopara viticola [1]
  inhibition at 0.25 µg/mL: 0%

## Cc1c(Br)c2ccc(F)cc2n1S(=O)(=O)c1ncn(S(=O)(=O)N(C)C)n1 [amidosulbrom, N,N-dimethyl-3-(3-bromo-6-fluoro-2-methylindole-1-sulfonyl)-[1,2,4]triazole-1-sulfonamide]
Plasmopara viticola [1]
  inhibition at 4 µg/mL: 22%

## CCNC(=O)NC(=O)C(C#N)=NOC [cymoxanil, 1-(2-cyano-2-methoxyiminoacetyl)-3-ethylurea, reference compound]
Plasmopara viticola [5]
  inhibition at 16 µg/mL: 33%
Pyricularia oryzae
  inhibition at 16 µg/mL: 12%

## COc1ccc(C(=CC(=O)N2CCOCC2)c2ccc(Cl)cc2)cc1OC [dimethomorph, 3-(4-chlorophenyl)-3-(3,4-dimethoxyphenyl)-1-morpholin-4-ylpropenone, reference compound]
Phytophthora infestans [2]
  pest or weed control at 4 ppm: 33%
Plasmopara viticola [5]
  inhibition at 16 µg/mL: 67%

## N#Cc1sc2c(=O)c3ccccc3c(=O)c=2sc1C#N [dithianon, 5,10-dioxo-5,10-dihydronaphtho[2,3-b][1,4]dithiin-2,3-dicarbonitrile]
Plasmopara viticola [5]
  inhibition at 16 µg/mL: 0%

## CCNc1nc(CC)c(C(=O)NC(C#N)c2cccs2)s1 (stereo not shown) [ethaboxam, N-(cyano-2-thienylmethyl)-4-ethyl-2-(ethylamino)-5-thiazolcarboxamide]
Plasmopara viticola [1]
  inhibition at 0.25 µg/mL: 33%

## Cc1ccc(C(C)NC(=O)[C@@H](NC(=O)OC(C)C)C(C)C)cc1 (stereo partly drawn) [iprovalicarb, isopropyl [(1S)-2-methyl-1-(1-p-tolylethylcarbamoyl)propyl]carbamate]
Plasmopara viticola [1]
  inhibition at 4 µg/mL: 0%

## manganese ethylenebis(dithiocarbanate) zinc complex [mancozeb]
Phytophthora infestans [4]
  Observed activity (%): 11%

## phosphorous acid disodium salt [phosphorous acid disodium salt (Na2HPO3), reference compound]
Phytophthora infestans [4]
  Observed activity (%): 33%
Phytophthora infestans [3]
  Observed activity (%): 6%

From US8679514B2, “Fungicidal mixtures based on azolopyrimidinylamines” (BASF SE, priority 2005, dated 2014)
